Measurements taken from patent US20130045969A1, “PLANT DISEASE CONTROLLING COMPOSITION AND METHOD FOR CONTROLLING PLANT DISEASE” (SUMITOMO CHEMICAL COMPANY, LIMITED, priority 2010, published 2013).

Test system: gray mold fungus (Botrytis cinerea)
Assay: Cucumber leaf disk preventive test against gray mold
Assay type: in vivo
Details: single compound, 15° C., four days
Protocol: True leaf of cucumber is punched out with cork borer to 13 mm in diameter to prepare a leaf disk. In 24 well microwell plate that is dispensed with 1 ml 0.8% water agar, the leaf disk is placed such that the upper side of the leaf is in an upward direction. Thereto is added 20 micro liter a testing solution prepared by mixing a dimethyl sulfoxide solution of the present compound (racemate) and a dimethyl sulfoxide solution of trifloxystrobin or pyribencarb to a predetermined concentration to treat the leaf disk. After confirming that the testing medical solution is dried, conidium of gray mold fungus (Botrytis cinerea) is suspended into potato dextrose broth (DIFCO) in a density of about 10^5 conidium/mL and is then subjected to a spray inoculation. After leaving to stand the leaf disk in a growth chamber set up at 15° C. for four days, an onset area on the leaf is measured and then calculated an onset area rate (hereinafter, referred to as an onset area rate of treated group). The same operation is carried out with 20 micro liter water instead of 20 micro liter a testing medicine solution to calculate an onset area rate (hereinafter, referred to an onset area rate of non-treated group). A preventive value is calculated from the above onset area rate of treated group and the onset area rate of non-treated group by the following equation: Preventive value (%)=100×(A−B)/A […] The same operations as described in Test Example 1 are carried out with azoxystrobin, dimoxystrobin, fluoxastrobin, kresoxim-methyl, metominostrobin, orysastrobin, picoxystrobin or pyraclostrobin instead of trifloxystrobin or pyribencarb, so as to calculate respective preventive values. Also for comparison, the same operations as described in Test Example 1 are carried out with the exception that the testing medicine solution is substituted with a predetermined concentration of each dimethyl sulfoxide solution of the present compound (racemate), azoxystrobin, dimoxystrobin, fluoxastrobin, kresoxim-methyl, metominostrobin, orysastrobin, picoxystrobin or pyraclostrobin, so as to calculate respective preventive values. For comparison, the same operations as described in Test Example 1 are carried out with the exception that the testing medicine solution is substituted with a predetermined concentration of each dimethyl sulfoxide solution of trifloxystrobin or pyribencarb, so as to calculate respective preventive values.

[1] = treatment concentration 0.5 ppm
[2] = treatment concentration 5.0 ppm

| Compound | preventive value (%) [1] [%] | preventive value (%) [2] [%] |
| --- | --- | --- |
| CNC(=O)/C(=N/OC)c1ccccc1COc1cc(C)ccc1C [dimoxystrobin] | 48 | 57 |
| COC(=O)NCc1cc(/C(C)=N/OCc2cccc(C)n2)ccc1Cl [pyribencarb] | 42 | 58 |
| CNC(=O)/C(=N/OC)c1ccccc1Oc1ccccc1 [metominostrobin] | 10 | 20 |
| CO/N=C(/C(=O)OC)c1ccccc1COc1ccccc1C [kresoxim-methyl] | 47 | 52 |
| COC(=O)N(OC)c1ccccc1COc1ccn(-c2ccc(Cl)cc2)n1 [pyraclostrobin] | 15 | 35 |
| CO/C=C(/C(=O)OC)c1ccccc1COc1cccc(C(F)(F)F)n1 [picoxystrobin] | 10 | 30 |
| CON=C(C(=O)OC)c1ccccc1CON=C(C)c1cccc(C(F)(F)F)c1 [trifloxystrobin] | 10 | 20 |
| CNC(=O)/C(=N/OC)c1ccccc1CO/N=C(C)/C(=N/OC)C(/C)=N/OC [orysastrobin] | 10 | 25 |
| CO/N=C(/C1=NOCCO1)c1ccccc1Oc1ncnc(Oc2ccccc2Cl)c1F [fluoxastrobin] | 43 | 52 |
| CO/C=C(/C(=O)OC)c1ccccc1Oc1cc(Oc2ccccc2C#N)ncn1 [azoxystrobin] | 43 | 53 |
